In US12595253B2, “Benzamides of pyrazolylamino-pyrimidinyl derivatives, and compositions and methods thereof” (LYNK PHARMACEUTICALS CO. LTD., priority 2019, dated 2026):

Biological target: T1, JAK2 (Homo sapiens, UniProt O60674)
T1 construct: purchased Carna Biosciences
Assay: JAK2 microfluidic kinase assay (Caliper EZ Reader II, FAM labeled peptide substrate)
Assay type: biochemical
Conditions: IC50 JAK2 ([…]) (1 mM ATP), 1 mM ATP
Experimental: Compounds were tested against JAK1, JAK2, JAK2V617F and TYK2. Assay Formats: JAK activity was determined in the reaction buffer 50 mM HEPES, 0.01% Brij35, 10 mM MgCl2, 2 mM DTT by a microfluidic assay. The phosphorylation of a FAM labeled peptide substrate was monitored in the Caliper EZ Reader II (Perkin Elmer). The assay condition for each batch of enzyme (Carna Biosciences) was optimized to obtain 10% conversion rate of peptide substrate. The test compounds were dissolved in DMSO to a stock concentration of 10 mM. 3-fold serially diluted compounds with top concentration of 5 μM were pre-incubated with JAK1, JAK2, JAK2V617F or TYK2 at indicated concentrations for 10 min at ambient temperature. The final DMSO concentration of assay mixture was 1%. […] The reaction was stopped by adding 50 mM EDTA. […] The percent inhibition was calculated by the following formula. % Inhibition=(Conversionmax−Conversionsample)/(Conversionmax−Conversionmin)*100 • Conversionmax means the conversion rate in the positive well without addition of compound • Conversionmin means the conversion rate in the well without addition of enzyme • Conversionsample means the conversion rate of test compounds The dose-response (percent inhibition) curve was plotted and IC50 values were determined by GraphPad software.

T1 sequence (O60674 whole entry): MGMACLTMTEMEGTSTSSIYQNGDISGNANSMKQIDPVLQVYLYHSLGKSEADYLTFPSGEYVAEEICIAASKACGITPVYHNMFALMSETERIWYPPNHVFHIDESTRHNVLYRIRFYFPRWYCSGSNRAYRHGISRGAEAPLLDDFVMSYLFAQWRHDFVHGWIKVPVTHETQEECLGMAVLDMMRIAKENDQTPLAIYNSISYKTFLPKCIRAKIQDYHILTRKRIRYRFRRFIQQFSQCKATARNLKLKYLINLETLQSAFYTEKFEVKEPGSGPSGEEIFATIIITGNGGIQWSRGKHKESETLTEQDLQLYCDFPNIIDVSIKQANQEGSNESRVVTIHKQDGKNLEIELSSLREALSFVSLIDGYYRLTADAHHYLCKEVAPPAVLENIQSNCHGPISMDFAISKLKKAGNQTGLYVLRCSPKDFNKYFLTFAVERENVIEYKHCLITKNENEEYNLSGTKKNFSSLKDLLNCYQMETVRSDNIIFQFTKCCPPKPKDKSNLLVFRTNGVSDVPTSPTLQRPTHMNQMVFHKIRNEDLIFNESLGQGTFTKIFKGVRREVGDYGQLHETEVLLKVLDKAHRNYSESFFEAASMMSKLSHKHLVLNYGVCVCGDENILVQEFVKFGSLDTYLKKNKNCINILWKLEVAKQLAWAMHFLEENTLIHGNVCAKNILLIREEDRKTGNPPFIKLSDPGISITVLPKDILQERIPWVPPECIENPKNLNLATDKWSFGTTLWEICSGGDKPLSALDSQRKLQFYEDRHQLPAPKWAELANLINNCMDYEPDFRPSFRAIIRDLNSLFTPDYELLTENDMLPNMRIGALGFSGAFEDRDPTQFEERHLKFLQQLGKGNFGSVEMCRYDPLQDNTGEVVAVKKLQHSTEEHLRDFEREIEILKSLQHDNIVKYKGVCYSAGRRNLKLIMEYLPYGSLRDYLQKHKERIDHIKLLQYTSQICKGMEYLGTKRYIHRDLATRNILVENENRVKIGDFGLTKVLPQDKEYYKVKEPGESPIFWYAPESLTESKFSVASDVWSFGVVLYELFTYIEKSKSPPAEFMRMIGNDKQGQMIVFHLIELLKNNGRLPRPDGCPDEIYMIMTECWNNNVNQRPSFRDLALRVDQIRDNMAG

Row | SMILES | IC50 [nM]
1 | N#CCNC(=O)c1ccc(-c2nc(Nc3cnn(C4CC4)c3)ncc2C(F)F)cc1F [Example 109, N-(cyanomethyl)-4-(2-((1-cyclopropyl-1H-pyrazol-4-yl)amino)-5-(difluoromethyl)pyrimidin-4-yl)-2-fluorobenzamide] | 457

Same assay, conditions: IC50 JAK2 ([…]) (Km ATP), Km ATP

Row | SMILES | IC50 [nM]
2 | Cc1cnc(Nc2cnn(C3CC3)c2)nc1-c1ccc(C(=O)N2CC(C#N)C2)cc1 [Example 29, 1-(4-(2-((1-Cyclopropyl-1H-pyrazol-4-yl)amino)-5-methylpyrimidin-4-yl)benzoyl)azetidine-3-carbonitrile] | 5.49
3 | N#CCNC(=O)c1ccc(-c2nc(Nc3cnn(CC(F)(F)F)c3)ncc2F)cc1F [Example 130, N-(cyanomethyl)-2-fluoro-4-(5-fluoro-2-((1-(2,2,2-trifluoroethyl)-1H-pyrazol-4-yl)amino)pyrimidin-4-yl)benzamide] | 58.1
4 | Cn1cc(Nc2nccc(-c3ccc(C(=O)NCC#N)cc3F)n2)cn1 [Example 35, N-(Cyanomethyl)-3-fluoro-4-(2-((1-methyl-1H-pyrazol-4-yl)amino)pyrimidin-4-yl)benzamide] | 34.9
5 | CC(=O)N1CCC(n2cc(Nc3ncc(C)c(-c4ccc(C(=O)N5CC(C#N)C5)cc4)n3)cn2)CC1 [Example 102, 1-(4-(2-((1-(1-Acetylpiperidin-4-yl)-1H-pyrazol-4-yl)amino)-5-methylpyrimidin-4-yl)benzoyl)azetidine-3-carbonitrile] | 2.6
6 | Cc1cnc(Nc2cnn(C)c2)nc1-c1ccc(C(=O)NC(C)C#N)cc1 (centres unmarked) [Example 17, N-(1-Cyanoethyl)-4-(5-methyl-2-((1-methyl-1H-pyrazol-4-yl)amino)pyrimidin-4-yl)benzamide] | 5.15
7 | Cc1cnc(Nc2cnn(C3CC3)c2)nc1-c1ccc(C(=O)NCC#N)c(F)c1 [Example 128, N-(cyanomethyl)-4-(2-((1-cyclopropyl-1H-pyrazol-4-yl)amino)-5-methylpyrimidin-4-yl)-2-fluorobenzamide] | 1.5
8 | N#CC1CN(C(=O)c2ccc(-c3nc(Nc4cnn(C5CC5)c4)ncc3Cl)cc2F)C1 [Example 136, 1-(4-(5-Chloro-2-((1-cyclopropyl-1H-pyrazol-4-yl)amino)pyrimidin-4-yl)-2-fluorobenzoyl)azetidine-3-carbonitrile] | 9.2
9 | Cc1cnc(Nc2cnn(C)c2)nc1-c1ccc(C(=O)NCCO)cc1 [Example 8, N-(2-Hydroxyethyl)-4-(5-methyl-2-((1-methyl-1H-pyrazol-4-yl)amino)pyrimidin-4-yl)benzamide] | 14
10 | Cc1cnc(Nc2cnn(CC#N)c2)nc1-c1ccc(C(=O)N2CC(C#N)C2)cc1 [Example 30, 1-(4-(2-((1-(Cyanomethyl)-1H-pyrazol-4-yl)amino)-5-methylpyrimidin-4-yl)benzoyl)azetidine-3-carbonitrile] | 11.5
11 | Cc1cnc(Nc2cnn(C)c2)nc1-c1ccc(C(=O)NCC(O)CO)cc1 (centres unmarked) [Example 14, N-(2,3-Dihydroxypropyl)-4-(5-methyl-2-((1-methyl-1H-pyrazol-4-yl)amino)pyrimidin-4-yl)benzamide] | 14.3
12 | Cc1cnc(Nc2cnn(C3CCN(CC#N)CC3)c2)nc1-c1ccc(C(=O)N2CC(C#N)C2)cc1 [Example 23, 1-(4-(2-((1-(1-(Cyanomethyl)piperidin-4-yl)-1H-pyrazol-4-yl)amino)-5-methylpyrimidin-4-yl)benzoyl)azetidine-3-carbonitrile] | 2.9
13 | N#CCNC(=O)c1ccc(-c2nc(Nc3cnn(CC(F)F)c3)ncc2F)cc1F [Example 131, N-(cyanomethyl)-4-(2-((1-(2,2-difluoroethyl)-1H-pyrazol-4-yl)amino)-5-fluoropyrimidin-4-yl)-2-fluorobenzamide] | 26.2
14 | N#CCNC(=O)c1ccc(-c2nc(Nc3cnn(C4CC4)c3)ncc2Cl)cc1F [Example 135, 4-(5-Chloro-2-((1-cyclopropyl-1H-pyrazol-4-yl)amino)pyrimidin-4-yl)-N-(cyanomethyl)-2-fluorobenzamide] | 2.8
15 | Cc1cnc(Nc2cnn(C)c2)nc1-c1ccc(C(=O)NCCN(C)C)cc1 [Example 105, N-(2-(Dimethylamino)ethyl)-4-(5-methyl-2-((1-methyl-1H-pyrazol-4-yl)amino)pyrimidin-4-yl)benzamide] | 55.9
16 | Cc1cnc(Nc2cnn(C)c2)nc1-c1ccc(C(=O)NCCCO)cc1 [Example 7, N-(3-Hydroxypropyl)-4-(5-methyl-2-((1-methyl-1H-pyrazol-4-yl)amino)pyrimidin-4-yl)benzamide] | 10.1
17 | Cc1cnc(Nc2cnn(C)c2)nc1-c1ccc(C(=O)N2CC(C#N)C2)c(F)c1 [Example 103, 1-(2-Fluoro-4-(5-methyl-2-((1-methyl-1H-pyrazol-4-yl)amino)pyrimidin-4-yl)benzoyl)azetidine-3-carbonitrile] | 12
18 | Cc1cnc(Nc2cnn(C)c2)nc1-c1ccc(C(=O)N2CC(C#N)C2)cc1 [Example 15, 1-(4-(5-Methyl-2-((1-methyl-1H-pyrazol-4-yl)amino)pyrimidin-4-yl)benzoyl)azetidine-3-carbonitrile] | 8.6
19 | N#CC1CN(C(=O)c2ccc(-c3ccnc(Nc4cnn(C5CC5)c4)n3)cc2F)C1 [Example 141, 1-(4-(2-((1-Cyclopropyl-1H-pyrazol-4-yl)amino)pyrimidin-4-yl)-2-fluorobenzoyl)azetidine-3-carbonitrile] | 40.4
20 | Cc1cnc(Nc2cnn(C3CCN(C(=O)C4(C)COC4)CC3)c2)nc1-c1ccc(C(=O)NCC#N)cc1 [Example 118, N-(Cyanomethyl)-4-(5-methyl-2-((1-(1-(3-methyloxetane-3-carbonyl)piperidin-4-yl)-1H-pyrazol-4-yl)amino)pyrimidin-4-yl)benzamide] | < 0.25
21 | Cc1cnc(Nc2cnn(C)c2)nc1-c1ccc(C(=O)NCC#N)c(F)c1 [Example 100, N-(Cyanomethyl)-2-fluoro-4-(5-methyl-2-((1-methyl-1H-pyrazol-4-yl)amino)pyrimidin-4-yl)benzamide] | 4.34
22 | C[C@@H](C#N)NC(=O)c1ccc(-c2ccnc(Nc3cnn(C4CC4)c3)n2)cc1F [Example 142, (S)—N-(1-Cyanoethyl)-4-(2-((1-cyclopropyl-1H-pyrazol-4-yl)amino)pyrimidin-4-yl)-2-fluorobenzamide] | 12.6
23 | Cc1cnc(Nc2cnn(C)c2)nc1-c1ccc(C(=O)NC2CC(O)C2)cc1 (centres unmarked) [Example 9, N-(3-Hydroxycyclobutyl)-4-(5-methyl-2-((1-methyl-1H-pyrazol-4-yl)amino)pyrimidin-4-yl)benzamide] | 17.2
24 | Cc1cnc(Nc2cnn(CC(F)(F)F)c2)nc1-c1ccc(C(=O)N2CC(C#N)C2)cc1 [Example 5, 1-(4-(5-Methyl-2-((1-(2,2,2-trifluoroethyl)-1H-pyrazol-4-yl)amino)pyrimidin-4-yl)benzoyl)azetidine-3-carbonitrile] | 16.6
25 | N#CC1CN(C(=O)c2ccc(-c3nc(Nc4cnn(C5CC5)c4)ncc3F)cc2F)C1 [Example 127, 1-(4-(2-((1-Cyclopropyl-1H-pyrazol-4-yl)amino)-5-fluoropyrimidin-4-yl)-2-fluorobenzoyl)azetidine-3-carbonitrile] | 53.5
26 | N#CCNC(=O)c1ccc(-c2nc(Nc3cnn(C4CC4)c3)ncc2F)cc1F [Example 116, N-(Cyanomethyl)-4-(2-((1-cyclopropyl-1H-pyrazol-4-yl)amino)-5-fluoropyrimidin-4-yl)-2-fluorobenzamide] | 10.6
